# Results reported in patent US11879893B2, “Rapid detection test for SARS-CoV-2” (priority 2020, dated 2024).
# Like-named read-outs stand apart in the source and are kept apart here. Marks after values point to notes of the source that are not given here. Square brackets hold non-standard residues; d marks the D form. Primed or numbered codes have the meaning given here. Peptide text beside a SMILES is read from it. * marks the point of attachment. Dabcyl′ = CN(C)c1ccc(/N=N/c2ccc(C(=O)*)cc2)cc1; Dabcyl = CN(C)c1ccc(N=Nc2ccc(C(=O)*)cc2)cc1; EDANS = O=S(=O)(O)c1cccc2c(NCCN*)cccc12; Sta = CC(C)C[C@H](N)[C@@H](O)CC(=O)O; Isovaleryl = CC(C)CC(=O)*
# Experiments:
# 3CL Protease [1] = target: T1, 3CL Protease (Severe acute respiratory syndrome coronavirus 2, UniProt P0DTC1); type: biochemical, SARS-CoV-2; settings: saliva samples
# T1 construct: 6xHIS-tag (N); TEV-protease cleavage site (ENLYFQG) (N); made in house
# Protocol: (§1) The purpose of adding protease inhibitors to the buffer is to reduce nonspecific saliva activity and increase signal to noise ratio. 29 inhibitors were tested using a competitive enzymatic activity assay of 3CL Protease in saliva samples.
# [2] = system: non-specific protease activity in saliva; assay: Inhibitor test in saliva samples: non-specific protease activity; type: biochemical
# Protocol: as §1
# [3] = system: Buccal sample non-specific protease activity; assay: Inhibitor test in buccal samples: non-specific protease activity; type: biochemical
# Protocol: Optimizing Inhibitor Cocktail to Maximize Buccal Sample Non-Specific Protease Activity Inhibition
# (§2) 29 inhibitors were tested using a competitive enzymatic activity assay of 3CL protease in buccal samples.
# 3CL = target: T2, 3CL (Severe acute respiratory syndrome coronavirus 2, UniProt P0DTC1); type: biochemical, SARS-CoV-2
# T2 construct: 6xHIS-tag (N); TEV-protease cleavage site (ENLYFQG) (N); made in house; host or cells: Rosetta BL21 E. coli, pET14b
# Protocol: In order to find the final and optimal reaction conditions, several parameters were tested:
# Reducing agent: DTT and TCEP were tested at various concentrations to see if enzyme activity was affected.
# 3CL Protease [4] = target: T1, 3CL Protease; type: biochemical, SARS-CoV-2
# Protocol: as §2
# SARS-CoV-2 3CL Pro = SARS-CoV-2 3CL Pro (Severe acute respiratory syndrome coronavirus 2, UniProt P0DTC1); settings: for Enzymatic activity, Slope, SARS-CoV-2: enzyme 150 ng/reaction; for % Enz activity, SARS-CoV-2: Table 5: relative to the substrate's own protease = 100
# Saliva = assay: Substrate cleavage by saliva (nonspecific activity); type: biochemical
# Protocol: For these enzymatic reactions 150 ng/well enzyme was used under final and optimized assay conditions, i.e. […] Experiment were tested with 3 different saliva samples; representative results are shown.
# HCoV-229E 3CL protease = target: T3, HCoV-229E 3CL protease (Human coronavirus 229E, UniProt P0C6U2); assay: Substrate cleavage by HCoV-229E 3CL protease; type: biochemical; settings: for Enzymatic activity, Slope, HCoV-229E / cross reactivity SARS-CoV-2 versus HCoV-229E protease: enzyme 150 ng/reaction; for % Enz activity, HCoV-229E: Table 5: relative to the substrate's own protease = 100; for cross reactivity SARS-CoV-2 versus HCoV-229E protease: substrate 5 uM
# T3 construct: 6xHIS-tag (N); TEV-protease cleavage site (ENLYFQG) (N); made in house; host or cells: Rosetta BL21 E. coli, pET14b
# Protocol: (§3) Running condition: Substrate concentration-5 uM, enzyme concentration 150 ng/reaction.
# (§4) Enzymatic activity (RFU/min) of SARS-CoV-2, HCoV-229E and HRV 3CL and 3C proteases using peptide (SEQ ID NO: 8) is summarized in Table 6. Substrate concentration-1 μM, enzyme concentration 150 ng/reaction.
# HRV 3C protease = assay: Substrate cleavage by HRV 3C protease; type: biochemical, Human Rhinovirus (HRV); settings: for % Enz activity, HRV: Table 5: relative to the substrate's own protease = 100
# Protocol: as §3, §4
# [5] = Table 2: 150 ng/well enzyme, 5 μM substrate, Dabcyl/EDANS, final buffer
# [6] = Table 2: 5 μM substrate, Dabcyl/EDANS, final buffer
# [7] = Table 4: substrate 5 uM, enzyme 150 ng/reaction
# [8] = Table 3: 1 uM substrate, 488/535 nm, gain 1400, buffer without BSA
molecule,measurement,setting,value
"2,6 PDA",inhibition of 3CL specific activity,3CL Protease [1],non significant inhibition
same,non-specific protease activity in saliva,[2],decreased
same,ranking among 29 inhibitors tested,[3],four best inhibitors
O[C@@H](CS)[C@@H](O)CS [DTT],effect of reducing agent on enzyme activity,"3CL; various concentrations, DTT 5 mM",most effective at preserving enzyme activity
[Cl-].[Na+] [NaCl],effect of potential enzyme mediator on enzyme activity,3CL,No positive effect
O=S(=O)(F)Cc1ccccc1 [PMSF],inhibition of 3CL specific activity,3CL Protease [1],non significant inhibition
same,non-specific protease activity in saliva,[2],decreased
same,non-specific protease activity,[3],decreased
same,ranking among 29 inhibitors tested,[3],four best inhibitors
same,inhibition of 3CL specific activity,3CL Protease [4]; buccal samples,non significant inhibition
OCC(O)CO [glycerol],effect of potential enzyme mediator on enzyme activity,3CL,No positive effect
CC(C)CC(=O)N[C@H](C(=O)N[C@H](C(=O)N[C@@H](CC(C)C)[C@@H](O)CC(=O)N[C@@H](C)C(=O)N[C@@H](CC(C)C)[C@@H](O)CC(=O)O)C(C)C)C(C)C [pepstatin] (Isovaleryl-VV[Sta]A[Sta]-OH),non-specific protease activity,[3],decreased
same,inhibition of 3CL specific activity,3CL Protease [4],non significant inhibition
AC-DEVD-CHO,inhibition of 3CL specific activity,3CL Protease [1],non significant inhibition
same,non-specific protease activity in saliva,[2],decreased
Aprotinin,inhibition of 3CL specific activity,3CL Protease [1],non significant inhibition
same,non-specific protease activity in saliva,[2],decreased
same,non-specific protease activity,[3],decreased
same,inhibition of 3CL specific activity,3CL Protease [4]; buccal samples,non significant inhibition
Dabcyl-AVLQSGF-{EDANS} [Substrate#3],Enzyme,SARS-CoV-2 3CL Pro; [5],354 +/− 18
same,Saliva,Saliva; [6],47 +/− 5
Dabcyl-AVLQSGFRK-EDANS ({Dabcyl′}-AVLQSGFRK-{EDANS}; SMILES CC(C)C[C@H](NC(=O)[C@@H](NC(=O)[C@H](C)NC(=O)c1ccc(/N=N/c2ccc(N(C)C)cc2)cc1)C(C)C)C(=O)N[C@@H](CCC(N)=O)C(=O)N[C@@H](CO)C(=O)NCC(=O)N[C@@H](Cc1ccccc1)C(=O)N[C@@H](CCCNC(=N)N)C(=O)N[C@@H](CCCCN)C(=O)NCCNc1cccc2c(S(=O)(=O)O)cccc12) [Substrate#4],Enzyme,SARS-CoV-2 3CL Pro; [5],1077 +/− 35
same,Saliva,Saliva; [6],1515 +/− 40
"Dabcyl-KTSAVLQSGFRKME-EDANS [Commercial substrate, reference compound]","Enzymatic activity, Slope, HCoV-229E",HCoV-229E 3CL protease; Table 4: substrate 5 uM,493 RFU/min
same,"% Enz activity, HCoV-229E",HCoV-229E 3CL protease,26%
same,cross reactivity SARS-CoV-2 versus HCoV-229E protease,HCoV-229E 3CL protease,greater activity towards SARS-CoV-2 than HCoV-229E protease
same,"Enzymatic activity, Slope, HRV",HRV 3C protease; [7],87 RFU/min
same,"% Enz activity, HRV",HRV 3C protease,1%
same,Saliva,Saliva; [6],2309 +/− 64
Dabcyl-LEALFQGP[Asp-(EDANS) SQ [Amide] ({Dabcyl′}-LEALFQGPD(EDANS)SQ-NH2; SMILES CC(C)C[C@H](NC(=O)c1ccc(/N=N/c2ccc(N(C)C)cc2)cc1)C(=O)N[C@@H](CCC(=O)O)C(=O)N[C@@H](C)C(=O)N[C@@H](CC(C)C)C(=O)N[C@@H](Cc1ccccc1)C(=O)N[C@@H](CCC(N)=O)C(=O)NCC(=O)N1CCC[C@H]1C(=O)N[C@@H](CC(=O)NCCNc1cccc2c(S(=O)(=O)O)cccc12)C(=O)N[C@@H](CO)C(=O)N[C@@H](CCC(N)=O)C(N)=O) [Biosyn#7],"Enzymatic activity, Slope, HCoV-229E",HCoV-229E 3CL protease; Table 4: substrate 5 uM,45 RFU/min
same,"% Enz activity, HCoV-229E",HCoV-229E 3CL protease,0%
same,"Enzymatic activity, Slope, HRV",HRV 3C protease; [7],1041 RFU/min
same,"% Enz activity, HRV",HRV 3C protease,100%
same,specificity for HRV,"HRV 3C protease; substrate 5 uM, enzyme 150 ng/reaction",specific for HRV
same,"Enzymatic activity, Slope, SARS-CoV-2",SARS-CoV-2 3CL Pro; Table 4: substrate 5 uM,43 RFU/min
same,"% Enz activity, SARS-CoV-2",SARS-CoV-2 3CL Pro,0%
Dabcyl-TSAVLQSGF-EDANS ({Dabcyl′}-TSAVLQSGF-{EDANS}; SMILES CC(C)C[C@H](NC(=O)[C@@H](NC(=O)[C@H](C)NC(=O)[C@H](CO)NC(=O)[C@@H](NC(=O)c1ccc(/N=N/c2ccc(N(C)C)cc2)cc1)[C@@H](C)O)C(C)C)C(=O)N[C@@H](CCC(N)=O)C(=O)N[C@@H](CO)C(=O)NCC(=O)N[C@@H](Cc1ccccc1)C(=O)NCCNc1cccc2c(S(=O)(=O)O)cccc12) [Substrate#2],Enzyme,SARS-CoV-2 3CL Pro; [5],449 +/− 36
same,Saliva,Saliva; [6],187 +/− 7
Dabcyl-TSAVLQSGFRK-EDANS [Biosyn #1],"Enzymatic activity, Slope, HCoV-229E",HCoV-229E 3CL protease; Table 4: substrate 5 uM,856 RFU/min
same,"% Enz activity, HCoV-229E",HCoV-229E 3CL protease,95%
same,cross reactivity SARS-CoV-2 versus HCoV-229E protease,HCoV-229E 3CL protease,Cross reactivity was detected
same,"Enzymatic activity, Slope, HRV",HRV 3C protease; [7],−12 RFU/min
same,"% Enz activity, HRV",HRV 3C protease,−1* %
same,Saliva,Saliva; [6],1123 +/− 35
Dabcyl-TSAVLQSGFYK-EDANS ({Dabcyl′}-TSAVLQSGFYK-{EDANS}; SMILES CC(C)C[C@H](NC(=O)[C@@H](NC(=O)[C@H](C)NC(=O)[C@H](CO)NC(=O)[C@@H](NC(=O)c1ccc(/N=N/c2ccc(N(C)C)cc2)cc1)[C@@H](C)O)C(C)C)C(=O)N[C@@H](CCC(N)=O)C(=O)N[C@@H](CO)C(=O)NCC(=O)N[C@@H](Cc1ccccc1)C(=O)N[C@@H](Cc1ccc(O)cc1)C(=O)N[C@@H](CCCCN)C(=O)NCCNc1cccc2c(S(=O)(=O)O)cccc12) [Substrate#5],Enzyme,SARS-CoV-2 3CL Pro; [5],527 +/− 7
same,Saliva,Saliva; [6],4688 +/− 53
Dabcyl-YGSTLQAGLRK-EDANS ({Dabcyl′}-YGSTLQAGLRK-{EDANS}; SMILES CC(C)C[C@H](NC(=O)CNC(=O)[C@H](C)NC(=O)[C@H](CCC(N)=O)NC(=O)[C@H](CC(C)C)NC(=O)[C@@H](NC(=O)[C@H](CO)NC(=O)CNC(=O)[C@H](Cc1ccc(O)cc1)NC(=O)c1ccc(/N=N/c2ccc(N(C)C)cc2)cc1)[C@@H](C)O)C(=O)N[C@@H](CCCNC(=N)N)C(=O)N[C@@H](CCCCN)C(=O)NCCNc1cccc2c(S(=O)(=O)O)cccc12) [Biosyn#6],"Enzymatic activity, Slope, HCoV-229E",HCoV-229E 3CL protease; Table 4: substrate 5 uM,213 RFU/min
same,"% Enz activity, HCoV-229E",HCoV-229E 3CL protease,100%
same,cross reactivity SARS-CoV-2 versus HCoV-229E protease,HCoV-229E 3CL protease,greater activity towards SARS-CoV-2 than HCoV-229E protease
same,"Enzymatic activity, Slope, HRV",HRV 3C protease; [7],44 RFU/min
same,"% Enz activity, HRV",HRV 3C protease,−7* %
same,"Enzymatic activity, Slope, SARS-CoV-2",SARS-CoV-2 3CL Pro; Table 4: substrate 5 uM,349 RFU/min
same,"% Enz activity, SARS-CoV-2",SARS-CoV-2 3CL Pro,190%
[BHQ-1]-AVLQSGF-[Cys(AF488)]-RK-amide ({BHQ‑1}-AVLQSGFC(AF488)RK-NH2) [CBR #3],Enzyme,SARS-CoV-2 3CL Pro; [8],461 +/− 18
same,Saliva,Saliva; [8],154 +/− 6
[BHQ-1]-AVLQSGFRK-[Cys(AF488)]-amide ({BHQ‑1}-AVLQSGFRKC(AF488)-NH2) [CBR #4],Enzyme,SARS-CoV-2 3CL Pro; [8],657 +/− 6
same,Saliva,Saliva; [8],726 +/− 25
[BHQ-1]-TSAVLQSGF-[Cys(AF488)]-RK-amide ({BHQ‑1}-TSAVLQSGFC(AF488)RK-NH2; also: places amidation at residue 10) [CBR #2],"Enzymatic activity, Slope, HCoV-229E",HCoV-229E 3CL protease; Table 6: substrate 1 μM,1116 RFU/min
same,"Enzymatic activity, Slope, HRV","HRV 3C protease; Table 6: substrate 1 μM, enzyme 150 ng/reaction",9 RFU/min
same,Enzyme,SARS-CoV-2 3CL Pro; [8],6425 +/− 41
same,"Enzymatic activity, Slope, SARS-CoV-2",SARS-CoV-2 3CL Pro; Table 6: substrate 1 μM,3536 RFU/min
same,signal to noise,"SARS-CoV-2 3CL Pro; enzyme versus saliva, Table 3 conditions",12.5
same,Saliva,Saliva; [8],512 +/− 16
[BHQ-1]-TSAVLQSGFRK-[Cys(AF488)]-amide [CBR #1],Saliva,Saliva; [8],1356 +/− 37
Eglin C (protein) TEFGSELKSFPEVVGKTVDQAREYFTLHYPQYDVYFLPEGSPVTLDLRYNRVRVFYNPGTNVVNHVPHVG,inhibition of 3CL specific activity,3CL Protease [1],non significant inhibition
same,non-specific protease activity in saliva,[2],decreased
same,non-specific protease activity,[3],decreased
same,ranking among 29 inhibitors tested,[3],four best inhibitors
same,inhibition of 3CL specific activity,3CL Protease [4]; buccal samples,non significant inhibition
